Our source for the IC50 values is ChEMBL document CHEMBL1800006, “Azaphilones and p-terphenyls from the mangrove endophytic fungus Penicillium chermesinum (ZH4-E2) isolated from the South China Sea” (J Nat Prod, 2011).

For one test, the target named is Acetylcholinesterase (Electrophorus electricus, UniProt O42275). As to the kind of experiment: Inhibition of electric eel AChE using acetylthiocholine chloride as substrate after 15 mins by Ellman's method. (DTNB colorimetry detects thiols as they appear.)
Test [1] is described as follows: Inhibition of alpha glucosidase by UV-[…] spectroscopy. (In general: CD spectra are sensitive to the conformation of chiral molecules.)

Chain of Acetylcholinesterase (O42275 whole entry): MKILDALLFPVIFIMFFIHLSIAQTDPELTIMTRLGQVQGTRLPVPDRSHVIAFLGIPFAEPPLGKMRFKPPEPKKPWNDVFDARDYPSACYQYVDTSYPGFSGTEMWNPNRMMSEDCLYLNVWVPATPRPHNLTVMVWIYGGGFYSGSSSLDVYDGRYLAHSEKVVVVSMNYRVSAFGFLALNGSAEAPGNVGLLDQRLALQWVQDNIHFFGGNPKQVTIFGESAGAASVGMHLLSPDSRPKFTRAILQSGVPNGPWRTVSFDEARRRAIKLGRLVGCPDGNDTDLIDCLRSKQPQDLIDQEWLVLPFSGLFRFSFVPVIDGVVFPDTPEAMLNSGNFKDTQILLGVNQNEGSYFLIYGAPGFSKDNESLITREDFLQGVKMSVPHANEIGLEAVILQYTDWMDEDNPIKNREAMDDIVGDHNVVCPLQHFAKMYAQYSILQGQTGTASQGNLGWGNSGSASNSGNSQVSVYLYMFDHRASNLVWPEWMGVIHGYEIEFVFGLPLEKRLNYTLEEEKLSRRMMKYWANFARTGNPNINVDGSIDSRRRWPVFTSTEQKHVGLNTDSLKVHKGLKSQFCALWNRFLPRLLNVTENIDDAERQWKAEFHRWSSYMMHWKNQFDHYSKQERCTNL

Regarding `CC[C@H](C)C(=O)[C@H]1C(=O)O[C@@]2(C)C(=O)C=C3C=C(C)O[C@H](O)[C@H]3[C@H]12` [CHERMESINONE C], the IC50 (on Acetylcholinesterase; in test [1]) was over 100 µM in each case.

For `COc1c(-c2ccc(O)cc2)cc(O)c2c1oc1cc(O)c(O)cc12`, the IC50 (as a rule, the concentration that gives 50% inhibition) against Acetylcholinesterase is 7.8 µM; in test [1], over 100 µM.

With `COc1c(-c2ccc(O)cc2)cc(O)c(-c2ccc(O)c(O)c2)c1O`, the half-inhibitory concentration (IC50) against Acetylcholinesterase is over 100 µM; in test [1] it was 4.9 µM.

In the case of `COc1c(-c2ccc(O)c(O)c2)cc(O)c2c1oc1cc(O)c(O)cc12` [6'-DESMETHYLCANDIDUSIN B], the figures for the concentration for half-maximal inhibition (IC50) (on Acetylcholinesterase; in test [1]) were 5.2 µM and over 100 µM, respectively.

As for `COc1c(-c2ccc(O)c(O)c2)cc(O)c(-c2ccc(O)c(O)c2)c1O`, the IC50 on Acetylcholinesterase was over 100 µM; in test [1], 2.9 µM.

Regarding `COc1c(-c2ccc(O)cc2)cc(O)c(-c2ccc(O)cc2)c1O`, the results for the IC50 (against Acetylcholinesterase; in test [1]) were over 100 µM and 0.9 µM, respectively.

On to `O=c1c(-c2ccc(O)cc2)coc2cc(O)cc(O)c12` [GENISTEIN], for which the IC50 in test [1] came to 9.8 µM.

In the case of `CC[C@H](C)C(=O)[C@H]1C(=O)O[C@@]2(C)C(=O)C=C3C=C(C)OC=C3[C@H]12` [CHERMESINONE B], the IC50 (against Acetylcholinesterase; in test [1]) was over 100 µM throughout.

Take `CC[C@H](C)C(=O)C[C@H]1C2=COC(C)=CC2=CC(=O)[C@]1(C)O` [CHERMESINONE A]: the IC50 is over 100 µM against Acetylcholinesterase and 24.5 µM in test [1].
